Patent US4390613A, “Diffusion transfer photographic system utilizing substituted phenylmercaptoazoles” (Polaroid Corporation, priority 1981, dated 1983)
Like-named read-outs stand apart in the source and are kept apart here.

Key:
[1] = Solubility product of the silver salts (Table II); assay type: physicochemical; settings: for Ksp: silver salt
Excerpt: Solubility product measurements were made for the silver salt of phenylmercaptotetrazole (PMT) at pH 13.5 and for the silver salt of compound II at pH 7 and pH 13.5 (above and below the pka of the oxime substituent).

[2] = Solubility of silver salts in presence of excess anion (Table III); assay type: physicochemical
Protocol: The solubilities of the silver salts of PMT and compound II in the presence of excess amounts of their anions were measured at pH 7.0 and 13.5. Each solution was 4×10^-3 molar in silver. The results are shown in Table III wherein the solubility data is expressed in μmoles/liter of total silver.

[3] = silver salt, pH 7; Z. C. H. Tan, Photogr. Sci. Eng. 19, 17 (1975); cited from earlier work
[4] = Ionization and stability in aqueous alkaline processing composition; assay type: physicochemical
Excerpt: However, it has been shown by experimentation that incorporating compound XI in a film unit according to the invention will provide advantageous results. Thus, it would appear that compound XI undergoes a change in aqueous alkaline processing composition and that the acetyl substituent is a precursor of a group which has the requisite properties described above which provide the desired results. […] It is therefore preferred to incorporate the compound elsewhere in the film unit, for example, in the photosensitive element.

Structure (SMILES)	effect of pH / ionization on solubility of the silver salt ([1]; pH 7 vs pH 13.5)	Ksp ([1]; pH 7)	Ksp ([1]; pH 13.5)	silver solvent behavior at high pH [2]	Ksp [3]	stability in aqueous alkaline processing composition ([4]; about a week or more in processing composition)	ionization of acetyl group to an anion ([4]; aqueous alkaline photographic processing composition)
CC(=NO)c1ccc(-n2nnnc2S)cc1 [Compound II]	increased the solubility of the silver salt of compound II by an order of magnitude	~ 1 × 10^-16	2 × 10^-15	weak to moderate silver solvent at high pH			
Sc1nnnn1-c1ccccc1 [PMT, 1-phenyl-5-mercaptotetrazole, reference compound]			4 × 10^-16	PMT is not	3 × 10^-16		
CC(=O)c1ccc(-n2nnnc2S)cc1 [XI]						long term instability characteristics	does not ionize to any appreciable extent
